{"source": "patent US9307765B2", "about": "“Selective weed control using D-napropamide” (UPL Limited, priority 2013, dated 2016)", "format_in_all_cases": "in vivo", "key": {"Stellaria media": {"test_system": "Stellaria media", "test": "Pre-emergence glasshouse pot study, seedling emergence and growth (OECD guideline)", "conditions": "for EC50 based on the final fresh weights: Stellaria media (dicot), 21 day assessment, probit; for Mean Final Foliar Fresh Weights Expressed as Percentage of Untreated Controls / Mean Final Foliar Fresh Weights: Stellaria media; for Mean Final Foliar Fresh Weights: 21 days after 50% emergence, untreated 1.44", "description": "(§1) A study was carried out to determine the relative biological activity of the D and L isomers of Napropamide when applied pre-emergence to one monocotyledon and one dicotyledon species. Napropamide, containing 450 grammes active substance per liter (g a.s./L) formulated as a suspension concentrate and the D-isomer of Napropamide (1000 g a.s./L) were applied at a range of concentrations from 0.1575 to 1.26 kilograms of active substance per hectare (kg a.s/Ha).\n(§2) EC50 values in kg a.s./Ha were calculated from the dose response data using final foliar fresh weight data for each species and was used to determine the relative biological activity of the D and L isomers of Napropamide. The methodology was based on the OECD guideline […], according to the revision of July 2006 for seedling emergence and growth. The study was conducted to GLP standards.\n(§3) Seeds were sown directly into non-porous plastic pots containing the following mix of soil: 10 L of sterile loam+4 L of coarse grit (washed quartztite, nominal 4 mm)+10 L of sand. This soil mix was characterized as a sandy loam with an organic carbon content of 1.5% and pH of 7.2. Details of the plant species, number of seeds per pot and pot size are shown below. All seeds were sown 1-2 cm deep.\n(§4) The highest concentration of Napropamide was prepared by measuring a calculated volume by weight and diluting with tap water to the full required volume. Lower concentrations were prepared by serial dilution with water. D-Napropamide was prepared by dissolving the calculated weight in acetone and adding water to give the full required volume in 50:50 acetone+water. Lower concentrations were prepared by serial dilution with 50:50 acetone+water. D-Napropamide dissolved completely.\n(§5) The sprayer was calibrated within 24 hours prior to application by weight of 15 applications of water to six 86 mm ID petri dishes. The total weight of water over a known area enabled a simple calculation giving the volume rate to be made. The volume rate achieved was within the range specified in the study plan (200 L/Ha±10%).\n(§6) Replication was 5 pots per treatment for each plant species. After application, pots were placed on the bench in glasshouse in randomized blocks. Plants were assessed for emergence, mortality and visual injury (expressed as a percentage of the untreated control: 0%=no injury, 1-39%=slight injury, 40-69%=moderate injury, 70-99%=severe injury and 100%=all plants dead) at 14 and 21 days after 50% emergence in the untreated controls. Fresh weights (biomass above soil level) were also recorded 21 days after 50% emergence in the untreated controls. Plants were fully turgid at the time of harvest.\n(§7) Assessment data was recorded on pro-forma sheets and entered into Gylling ARM 7 software. EC50 values were calculated using audited means data from the final assessments (21 day). Gylling ARM 7.0 software used a simple probit—maximum likelihood estimation method with 99% confidence level. The EC50 values generated were then visually checked against the means data table to verify they appeared correct."}, "Poa annua": {"test_system": "Poa annua", "test": "Pre-emergence glasshouse pot study, seedling emergence and growth (OECD guideline)", "conditions": "for Mean Final Foliar Fresh Weights Expressed as Percentage of Untreated Controls / Mean Final Foliar Fresh Weights: Poa annua; for Mean Final Foliar Fresh Weights: 21 days after 50% emergence, untreated 0.90", "description": "as §1, §2, §3, §4, §5, §6, §7"}, "Veronica persica": {"test_system": "Veronica persica", "test": "Field trial in winter oilseed rape, pre-emergence, % control", "description": "(§8) Field trials were conducted on various moncotyledonous weeds and dicotyledonous weeds and the effect of D-isomer of Napropamide was studied to understand the selective and effective control of dicotyledonous weeds over monocotyledonous weeds. The effect of D-isomer of Napropamide in comparison to racemic napropramide and untreated was studied, which is concluded hereinbelow:\n(§9) Several small plot replicated trials were carried out to evaluate and/or compare the efficacy of D-Napropamide against a range of indicated annual broadleaved and grass weed species in the indicated crops. No problems were encountered during mixing or application of any of the product formulations or tank mixtures under test.\n(§10) In each of the reported data, the homogeneity of variance was tested by Bartlett's test. Wherever this test indicated no homogeneity of variance, the transformed values were used for analysis of variance. Assessment data was then analyzed using a two-way analysis of variance (ANOVA) on untransformed and transformed data. The probability of no significant differences occurring between treatment means was calculated as the F probability value (p(F)). A mean comparison test was only performed and reported when the treatment of F that was calculated during analysis of variance was significant at the observed significance level specified for the mean comparison test. Where the data was transformed, treatment means in the reports were presented in their detransformed state, with the appropriate letter test and mean descriptions (LSD and standard deviation) derived from the transformed ANOVA.\n(§11) Trials were conducted to evaluate the selectivity and efficacy of D-isomer of Napropamide when applied pre-emergence to oilseed rape crop. The % control of weed was assessed at regular intervals."}, "Cirsium arvense": {"test_system": "Cirsium arvense", "test": "Field trial in winter oilseed rape, pre-emergence, % control", "description": "as §8, §9, §10, §11"}, "Aperaspica-venti": {"test_system": "Aperaspica-venti", "test": "Field trial in winter oilseed rape, pre-emergence, % control", "description": "as §8, §9, §10, §11"}, "Fallopia convolvulus": {"test_system": "Fallopia convolvulus", "test": "Field trial in winter oilseed rape, pre-emergence, % control", "description": "as §8, §9, §10, §11"}, "Senecio vulgaris [1]": {"test_system": "Senecio vulgaris", "test": "Field trial in winter oilseed rape, pre-emergence, % control", "description": "as §8, §9, §10, §11"}, "Senecio vulgaris [2]": {"test_system": "Senecio vulgaris", "test": "Field trial on strawberries, pre-emergence, visual % control", "description": "as §8, §9, §10\n(§12) Trial was carried out on strawberries to evaluate the efficacy and selectivity of D-Napropamide and equivalent rate of Devrinol (Napropramide) applied pre-emergence. […]"}, "Papaver rhoeas": {"test_system": "Papaver rhoeas", "test": "Field trial on strawberries, pre-emergence, visual % control", "description": "as §8, §9, §10, §12"}, "Ranunculus repens": {"test_system": "Ranunculus repens", "test": "Field trial on strawberries, pre-emergence, visual % control", "description": "as §8, §9, §10\nTrial was carried out on strawberries to evaluate the efficacy and selectivity of D-Napropamide and equivalent rate of Devrinol (Napropramide) applied pre-emergence. […] The percentage control of D-isomer of Napropamide and Devrinol was assessed in comparison to the untreated after 224 days after application."}, "Matricaria sp.": {"test_system": "Matricaria sp.", "test": "Field trial in winter oilseed rape, pre-emergence, % control and ground cover", "conditions": "450 g/L @ 2.8 L/Ha", "description": "as §8, §9, §10, §11"}, "Digitaria sanguinalis": {"test_system": "Digitaria sanguinalis", "test": "Plot trial, % control of Digitaria sanguinalis", "conditions": "9 L/Ha of 450 g/L formulation", "description": "as §8, §9\nas §10, with “ANOVA. […]” for “ANOVA.”"}}, "note": "Where “and” joins values, the source holds several entries; their conditions need not be identical. Equal values may be shown once.", "data": [{"smiles": "CCN(CC)C(=O)C(C)Oc1cccc2ccccc12", "note": "(racemic) [Napropamide, N,N-diethyl-2-(α-naphthoxy)propionamide]", "values": [{"measurement": "EC50 based on the final fresh weights", "setting": "Stellaria media", "result": 0.22, "unit": "kg/Ha"}, {"measurement": "Mean Final Foliar Fresh Weights Expressed as Percentage of Untreated Controls", "setting": "Stellaria media; rate 0.1575 kg/Ha", "result": 70, "unit": "%"}, {"measurement": "Mean Final Foliar Fresh Weights", "setting": "Stellaria media; rate 0.315 kg/Ha pre-emergence", "result": 0.3, "unit": "g"}, {"measurement": "Mean Final Foliar Fresh Weights", "setting": "Stellaria media; rate 0.63 kg/Ha pre-emergence", "result": 0.328, "unit": "g"}, {"measurement": "Mean Final Foliar Fresh Weights Expressed as Percentage of Untreated Controls", "setting": "Stellaria media; rate 1.26 kg/Ha", "result": 16, "unit": "%"}, {"measurement": "EC50 based on the final fresh weights", "setting": "Poa annua; Poa annua (monocot), 21 day assessment, probit", "result": 0.72, "unit": "kg/Ha"}, {"measurement": "Mean Final Foliar Fresh Weights Expressed as Percentage of Untreated Controls", "setting": "Poa annua; rate 0.1575 kg/Ha", "result": 100, "unit": "%"}, {"measurement": "Mean Final Foliar Fresh Weights", "setting": "Poa annua; rate 0.315 kg/Ha pre-emergence", "result": 0.57, "unit": "g"}, {"measurement": "Mean Final Foliar Fresh Weights", "setting": "Poa annua; rate 0.63 kg/Ha pre-emergence", "result": 0.98, "unit": "g"}, {"measurement": "Mean Final Foliar Fresh Weights Expressed as Percentage of Untreated Controls", "setting": "Poa annua; rate 1.26 kg/Ha", "result": 23, "unit": "%"}, {"measurement": "Percentage Control at 63 DAA", "setting": "Veronica persica; 450 g/L @ 1.6 L/Ha", "result": 75.00, "unit": "%"}, {"measurement": "Percentage Control at 63 DAA", "setting": "Veronica persica; 450 g/L @ 2.8 L/Ha", "result": 75.00, "unit": "%"}, {"measurement": "Mean Percentage Control", "setting": "Cirsium arvense; 450 g/L @ 2.8 L/Ha", "result": 20.00, "unit": "%"}, {"measurement": "Conclusion: control of the weed at equivalent dosage", "setting": "Cirsium arvense; Cirsium arvense, dicot", "result": "negligible control"}, {"measurement": "Percentage Control at 63 DAA", "setting": "Aperaspica-venti; 450 g/L @ 1.6 L/Ha", "result": 40.00, "unit": "%"}, {"measurement": "Percentage Control at 63 DAA", "setting": "Aperaspica-venti; 450 g/L @ 2.8 L/Ha", "result": "76.25% and 67.50%"}, {"measurement": "Percentage Control at 63 DAA", "setting": "Fallopia convolvulus; 450 g/L @ 1.6 L/Ha", "result": 30.00, "unit": "%"}, {"measurement": "Percentage Control at 63 DAA", "setting": "Fallopia convolvulus; 450 g/L @ 2.8 L/Ha", "result": 0.00, "unit": "%"}, {"measurement": "Percentage Control at 63 DAA", "setting": "Senecio vulgaris [1]; 450 g/L @ 1.6 L/Ha", "result": 36.96, "unit": "%"}, {"measurement": "Percentage Control at 63 DAA", "setting": "Senecio vulgaris [1]; 450 g/L @ 2.8 L/Ha", "result": 4.65, "unit": "%"}, {"measurement": "Percentage Control at 70 DAA", "setting": "Senecio vulgaris [2]; 5 L/Ha of 450 g/L formulation", "result": 37.5, "unit": "%"}, {"measurement": "Percentage Control at 70 DAA", "setting": "Senecio vulgaris [2]; 7 L/Ha of 450 g/L formulation", "result": 25.0, "unit": "%"}, {"measurement": "Percentage Control at 70 DAA", "setting": "Senecio vulgaris [2]; 14 L/Ha of 450 g/L formulation", "result": 12.5, "unit": "%"}, {"measurement": "Percentage Control at 70 DAA", "setting": "Papaver rhoeas; 5 L/Ha of 450 g/L formulation", "result": 62.5, "unit": "%"}, {"measurement": "Percentage Control at 70 DAA", "setting": "Papaver rhoeas; 7 L/Ha of 450 g/L formulation", "result": 81.7, "unit": "%"}, {"measurement": "Percentage Control at 70 DAA", "setting": "Papaver rhoeas; 14 L/Ha of 450 g/L formulation", "result": 82.5, "unit": "%"}, {"measurement": "Percentage Control at 224 DAA", "setting": "Ranunculus repens; 5 L/Ha of 450 g/L formulation", "result": 33.3, "unit": "%"}, {"measurement": "Percentage Control at 224 DAA", "setting": "Ranunculus repens; 7 L/Ha of 450 g/L formulation", "result": 66.7, "unit": "%"}, {"measurement": "Percentage Control at 224 DAA", "setting": "Ranunculus repens; 14 L/Ha of 450 g/L formulation", "result": 83.3, "unit": "%"}, {"measurement": "Percentage ground cover %, value in brackets (untreated 0.0%)", "setting": "Matricaria sp.", "result": "(52.8%)"}, {"measurement": "Percentage Control at 49 DAA", "setting": "Matricaria sp.; oilseed rape", "result": 61.25, "unit": "%"}, {"measurement": "Percentage ground cover %", "setting": "Matricaria sp.; untreated 4.50", "result": 2.13, "unit": "%"}, {"measurement": "% Control", "setting": "Digitaria sanguinalis; 16 DAA", "result": 12.50, "unit": "%"}, {"measurement": "% Control", "setting": "Digitaria sanguinalis; 33 DAA", "result": 15.00, "unit": "%"}]}, {"smiles": "CCN(CC)C(=O)[C@H](C)Oc1cccc2ccccc12", "note": "[L-Napropamide, reference compound]", "values": [{"measurement": "EC50 based on the final fresh weights", "setting": "Stellaria media", "result": 1.26, "unit": "kg/Ha"}]}]}
